Source: ChEMBL document CHEMBL1909046, “DrugMatrix in vitro pharmacology data”
pIC50, pKi: −log10 of the molar value. Where a SMILES comes first, the peptide text is derived from it. Bridges are numbered along the chain shown (N, C = ends). [ ]: non-standard residue; d: D form. The star is where a group is joined. Threoninol(2S,3R) = C[C@@H](O)[C@H](CO)N*

Tests used:
[1] = biological target: T1, D(4) dopamine receptor (Homo sapiens, UniProt P21917); experiment: DRUGMATRIX: Dopamine D4.2 radioligand binding (ligand: [3H] Spiperone); format: cell membranes, Membrane; settings: cho-k1; Not Active = under 50% inhibition at 10 µM
T1 sequence (P21917 whole entry): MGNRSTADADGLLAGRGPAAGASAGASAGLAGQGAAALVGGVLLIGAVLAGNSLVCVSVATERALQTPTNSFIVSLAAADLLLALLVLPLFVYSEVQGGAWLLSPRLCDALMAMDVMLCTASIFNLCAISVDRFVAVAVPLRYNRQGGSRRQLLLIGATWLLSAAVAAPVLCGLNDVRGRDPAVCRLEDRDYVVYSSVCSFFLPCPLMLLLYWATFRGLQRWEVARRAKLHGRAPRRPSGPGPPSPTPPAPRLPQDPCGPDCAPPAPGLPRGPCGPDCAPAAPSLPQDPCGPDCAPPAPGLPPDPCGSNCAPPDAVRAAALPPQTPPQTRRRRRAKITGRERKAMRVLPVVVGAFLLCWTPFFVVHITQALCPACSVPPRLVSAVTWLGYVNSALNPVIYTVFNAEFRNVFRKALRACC

[2] = biological target: T2, Receptor-type tyrosine-protein phosphatase C (Homo sapiens, UniProt P08575); set-up: species or system Escherichia coli;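 also: inhibition of CD45 enzyme activity measured using DiFMUP as substrate; in other assays of this panel Not Active means under 50% inhibition at 10 µM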
T2 sequence (P08575 whole entry): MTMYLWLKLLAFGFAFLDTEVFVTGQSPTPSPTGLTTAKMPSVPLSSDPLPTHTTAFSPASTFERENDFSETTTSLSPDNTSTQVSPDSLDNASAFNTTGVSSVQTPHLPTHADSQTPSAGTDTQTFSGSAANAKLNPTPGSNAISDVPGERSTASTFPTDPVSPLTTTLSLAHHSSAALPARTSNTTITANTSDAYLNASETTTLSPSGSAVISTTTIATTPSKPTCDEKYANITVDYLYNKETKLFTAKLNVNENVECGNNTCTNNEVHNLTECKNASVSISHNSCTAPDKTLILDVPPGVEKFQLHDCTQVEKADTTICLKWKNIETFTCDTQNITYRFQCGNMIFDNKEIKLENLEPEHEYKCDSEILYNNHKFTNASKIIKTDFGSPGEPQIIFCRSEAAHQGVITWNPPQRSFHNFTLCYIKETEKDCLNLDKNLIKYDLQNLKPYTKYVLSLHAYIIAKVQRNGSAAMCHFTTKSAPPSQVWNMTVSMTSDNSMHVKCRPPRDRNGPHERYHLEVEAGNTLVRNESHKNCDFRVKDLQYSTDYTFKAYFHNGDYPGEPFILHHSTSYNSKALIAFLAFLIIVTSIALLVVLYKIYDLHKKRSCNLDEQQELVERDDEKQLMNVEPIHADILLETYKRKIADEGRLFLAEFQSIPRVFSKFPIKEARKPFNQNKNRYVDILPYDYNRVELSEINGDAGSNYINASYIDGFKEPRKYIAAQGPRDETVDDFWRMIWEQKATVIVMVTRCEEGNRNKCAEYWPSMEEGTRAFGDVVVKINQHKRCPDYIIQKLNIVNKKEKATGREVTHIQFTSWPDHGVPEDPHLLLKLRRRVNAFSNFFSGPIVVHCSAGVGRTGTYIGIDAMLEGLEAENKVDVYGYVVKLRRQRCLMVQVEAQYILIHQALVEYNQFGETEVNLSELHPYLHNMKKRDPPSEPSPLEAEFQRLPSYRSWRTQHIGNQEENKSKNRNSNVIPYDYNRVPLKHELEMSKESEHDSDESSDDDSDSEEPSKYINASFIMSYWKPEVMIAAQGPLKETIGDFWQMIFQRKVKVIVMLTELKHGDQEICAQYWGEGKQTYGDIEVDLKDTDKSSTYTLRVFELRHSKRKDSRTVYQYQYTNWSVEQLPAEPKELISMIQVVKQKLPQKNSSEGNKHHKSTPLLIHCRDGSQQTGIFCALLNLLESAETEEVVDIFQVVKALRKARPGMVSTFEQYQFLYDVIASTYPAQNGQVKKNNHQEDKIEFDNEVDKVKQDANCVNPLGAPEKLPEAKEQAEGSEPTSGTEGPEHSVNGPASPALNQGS

[3] = biological target: T3, Calcitonin receptor (Homo sapiens, UniProt P30988); format: cell membranes, Membrane; settings: t47d; also: in other assays of this panel Not Active means under 50% inhibition at 10 µM
T3 sequence (P30988 whole entry): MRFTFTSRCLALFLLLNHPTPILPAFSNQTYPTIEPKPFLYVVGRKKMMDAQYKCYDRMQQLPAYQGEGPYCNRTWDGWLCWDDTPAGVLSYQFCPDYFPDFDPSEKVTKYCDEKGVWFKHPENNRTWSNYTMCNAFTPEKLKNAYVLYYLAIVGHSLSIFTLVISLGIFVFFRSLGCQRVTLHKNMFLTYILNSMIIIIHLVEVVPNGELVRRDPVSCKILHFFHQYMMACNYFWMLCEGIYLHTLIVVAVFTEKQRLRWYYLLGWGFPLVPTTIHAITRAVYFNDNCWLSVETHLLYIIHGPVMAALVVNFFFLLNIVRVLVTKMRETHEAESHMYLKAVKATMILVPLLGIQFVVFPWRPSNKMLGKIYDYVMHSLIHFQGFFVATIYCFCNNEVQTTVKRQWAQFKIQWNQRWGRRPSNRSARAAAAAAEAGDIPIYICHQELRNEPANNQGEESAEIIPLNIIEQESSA

[4] = biological target: T4, Alpha-2A adrenergic receptor (Homo sapiens, UniProt P08913); format: cell membranes, Sf9, Membrane; also: in other assays of this panel Not Active means under 50% inhibition at 10 µM
T4 sequence (P08913 whole entry): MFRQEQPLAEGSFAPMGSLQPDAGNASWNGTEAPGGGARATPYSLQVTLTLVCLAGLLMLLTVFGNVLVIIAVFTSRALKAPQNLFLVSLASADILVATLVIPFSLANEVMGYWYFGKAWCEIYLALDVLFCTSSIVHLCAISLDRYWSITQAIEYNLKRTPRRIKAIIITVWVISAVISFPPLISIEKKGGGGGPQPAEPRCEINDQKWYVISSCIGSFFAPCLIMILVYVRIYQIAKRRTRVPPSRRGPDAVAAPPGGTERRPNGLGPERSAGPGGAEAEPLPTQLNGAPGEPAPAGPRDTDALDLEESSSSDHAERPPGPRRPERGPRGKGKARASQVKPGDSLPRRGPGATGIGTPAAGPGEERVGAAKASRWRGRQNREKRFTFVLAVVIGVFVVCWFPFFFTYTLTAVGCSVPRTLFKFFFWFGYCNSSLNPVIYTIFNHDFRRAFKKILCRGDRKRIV

[5] = DRUGMATRIX: Phorbol Ester radioligand binding (ligand: [3H] PDBu); format: cell membranes, Mus musculus, ICR, Brain, Membrane; settings: Not Active = under 50% inhibition at 10 µM

Row | SMILES | IC50 [1] | IC50 [2] | IC50 [3] | IC50 ([4]; sf9) | IC50 [5] | Ki [5] | pIC50 ([4]; read-out: IC50) | pKi ([4]; read-out: Ki) | Ki [1] | Ki [2] | Ki [3] | Ki ([4]; sf9)
1 | COc1ccccc1C(=O)N1CCC(Cc2ccccc2)CC1 | Not Active | Not Active | Not Active | Not Active | Not Active | Not Active |  |  |  |  |  | 
2 | Cc1ccccc1C(=O)N1CCC(Cc2ccccc2)CC1 | Not Active | Not Active | Not Active | Not Active | Not Active | Not Active |  |  |  |  |  | 
3 | O=C1CC[C@H](N2C(=O)c3ccccc3C2=O)C(=O)N1 | Not Active | Not Active | Not Active | Not Active | Not Active | Not Active |  |  |  |  |  | 
4 | N=C(Nc1ccccc1)Nc1ccccc1 | Not Active | Not Active | Not Active | Not Active | Not Active | Not Active |  |  |  |  |  | 
5 | C[C@@H](O)[C@H](CO)NC(=O)[C@@H]1CSSC[C@H](NC(=O)[C@H](N)Cc2ccccc2)C(=O)N[C@@H](Cc2ccccc2)C(=O)N[C@H](Cc2c[nH]c3ccccc23)C(=O)N[C@@H](CCCCN)C(=O)N[C@@H]([C@@H](C)O)C(=O)N1 (H-[dF]CF[dW]KTC-{Threoninol(2S,3R)}; disulfide 2-7) | Not Active | Not Active | Not Active | Not Active | Not Active | Not Active |  |  |  |  |  | 
6 | S=C=Nc1cccc2ccccc12 [1-NAPHTHYLISOTHIOCYANATE] | Not Active | Not Active | Not Active |  | Not Active | Not Active | 5.20 | 5.63 |  |  |  | 
7 | C[C@](O)(CS(=O)(=O)c1ccc(F)cc1)C(=O)Nc1ccc(C#N)c(C(F)(F)F)c1 [(R)-BICALUTAMIDE] | Not Active | Not Active | Not Active | Not Active | Not Active | Not Active |  |  |  |  |  | 
8 | CCCC(=O)Nc1ccc(OCC(O)CNC(C)C)c(C(C)=O)c1 (stereo not drawn) [ACEBUTOLOL] | Not Active | Not Active | Not Active | Not Active | Not Active | Not Active |  |  |  |  |  | 
9 | CC(=O)Nc1ccc(O)cc1 [ACETAMINOPHEN] | Not Active | Not Active | Not Active | Not Active | Not Active | Not Active |  |  |  |  |  | 
10 | COc1cc2c(c3oc(=O)c4c(c13)CCC4=O)[C@@H]1C=CO[C@@H]1O2 [AFLATOXIN] | Not Active | Not Active | Not Active | Not Active | Not Active | Not Active |  |  | Not Active | Not Active | Not Active | Not Active
11 | N=C(N)NC(=O)c1nc(Cl)c(N)nc1N [AMILORIDE] | Not Active | Not Active | Not Active | Not Active | Not Active | Not Active |  |  |  |  |  | 
12 | Cc1cc(=O)n(-c2ccccc2)n1C [ANTIPYRINE] | Not Active | Not Active | Not Active | Not Active | Not Active | Not Active |  |  |  |  |  | 
13 | CN1C(=O)COc2c(C(=O)NC3CN4CCC3CC4)cc(Cl)cc21 (stereo not drawn) [AZASETRON] | Not Active | Not Active | Not Active | Not Active | Not Active | Not Active |  |  |  |  |  | 
14 | C[C@H]1C[C@H]2[C@@H]3CCC4=CC(=O)C=C[C@]4(C)[C@@]3(Cl)[C@@H](O)C[C@]2(C)[C@@]1(O)C(=O)CO [BECLOMETHASONE] | Not Active | Not Active | Not Active | Not Active | Not Active | Not Active |  |  |  |  |  | 
15 | CCOC(=O)[C@H](CCc1ccccc1)N[C@H]1CCc2ccccc2N(CC(=O)O)C1=O [BENAZEPRIL] | Not Active | Not Active | Not Active | Not Active | Not Active | Not Active |  |  |  |  |  | 
16 | Nc1c(CC(=O)O)cccc1C(=O)c1ccc(Br)cc1 [BROMFENAC] | Not Active | Not Active | Not Active | Not Active | Not Active | Not Active |  |  |  |  |  | 
17 | CCCCN1CCCCC1C(=O)Nc1c(C)cccc1C.Cl (stereo not drawn) [BUPIVACAINE HYDROCHLORIDE] | Not Active | Not Active | Not Active | Not Active | Not Active | Not Active |  |  |  |  |  | 
18 | O=C1CC2(CCCC2)CC(=O)N1CCCCN1CCN(c2ncccn2)CC1 [BUSPIRONE] | Not Active | Not Active | Not Active | Not Active | Not Active | Not Active |  |  |  |  |  | 
19 | C[C@@]12C(=O)OC(=O)[C@]1(C)[C@H]1CC[C@@H]2O1 [CANTHARIDIN] | Not Active | Not Active | Not Active | Not Active | Not Active | Not Active |  |  |  |  |  | 
20 | O=NN(CCCl)C(=O)NCCCl [CARMUSTINE] | Not Active | Not Active | Not Active | Not Active | Not Active | Not Active |  |  |  |  |  | 
21 | CC1=C(C(=O)O)N2C(=O)[C@@H](NC(=O)[C@H](N)c3ccccc3)[C@H]2SC1 [CEPHALEXIN ANHYDROUS] | Not Active | Not Active | Not Active | Not Active | Not Active | Not Active |  |  |  |  |  | 
22 | O=C(N[C@H](CO)[C@H](O)c1ccc([N+](=O)[O-])cc1)C(Cl)Cl [CHLORAMPHENICOL] | Not Active | Not Active | Not Active | Not Active | Not Active | Not Active |  |  |  |  |  | 
23 | ClC(Cl)Cl [CHLOROFORM] | Not Active | Not Active | Not Active | Not Active | Not Active | Not Active |  |  |  |  |  | 
